Data published in ChEMBL document CHEMBL5579834 (Eur J Med Chem, 2024).

Tests used:
Ebolavirus [1] = test: Antiviral activity against HIV-based lentiviral pseudotyped Ebolavirus harboring mucin domain deleted GP infected in HEK293T cells assessed as inhibition of viral entry preincubated with virus for 1 hr followed by cell infection and measured after 48 hrs by luminescence assay; assay type: functional, organism-based; conditions: Orthoebolavirus, HEK-293T
Marburgvirus = test: Antiviral activity against HIV-based lentiviral pseudotyped Marburgvirus harboring mucin domain deleted GP infected in HEK293T cells assessed as inhibition of viral entry preincubated with virus for 1 hr followed by cell infection and measured after 48 hrs by luminescence assay; assay type: functional, organism-based; conditions: Orthomarburgvirus, HEK-293T
[2] = Selectivity index, ratio of CC50 for HEK293T cells to IC50 for antiviral activity against HIV-based lentiviral pseudotyped Ebolavirus harboring mucin domain deleted GP infected in HEK293T cells assessed as inhibition of viral entry; assay type: toxicity, cell-based; conditions: human, read-out: Ratio CC50/IC50
[3] = Selectivity index, ratio of CC50 for HEK293T cells to IC50 for antiviral activity against HIV-based lentiviral pseudotyped Marburgvirus harboring mucin domain deleted GP infected in HEK293T cells assessed as inhibition of viral entry; assay type: toxicity, cell-based; conditions: human, read-out: Ratio CC50/IC50
Ebolavirus [4] = test: Antiviral activity against pseudotyped Ebolavirus harboring GP; assay type: functional, organism-based; conditions: Orthoebolavirus

Q: Which results are given for `CN1CCN(CCCC(=O)O[C@H]2C(C)(C)[C@H]3CC[C@]2(C)C3)CC1`?
A: IC50 (Ebolavirus [1]): 3.1 µM; IC50 (Marburgvirus): 20.7 µM

Q: What does the source list for `CC1(C)[C@H]2CC[C@](C)(C2)[C@H]1OC(=O)CN1CCOCC1`?
A: selectivity ratio [2]: 22; selectivity ratio [3]: 1; IC50 (Ebolavirus [1]): 13 µM; IC50 (Marburgvirus): 213 µM

Q: Which IC50 (Ebolavirus [1]) does the source give for `CN1CCN(CC(=O)O[C@H]2C(C)(C)[C@H]3CC[C@]2(C)C3)CC1` here?
A: 20.4 µM

Q: And the IC50 (Marburgvirus)?
A: 27.5 µM

Q: With `CCN1CCN(CCC(=O)O[C@H]2C(C)(C)[C@H]3CC[C@]2(C)C3)CC1` as the molecule, how does the selectivity ratio [2] read?
A: 44

Q: What about the selectivity ratio [3] of the same molecule?
A: 14

Q: And the IC50 (Ebolavirus [1])?
A: 8.1 µM

Q: And the IC50 (Marburgvirus)?
A: 25 µM

Q: With `CC1(C)[C@H]2CC[C@](C)(C2)[C@H]1OC(=O)CCCN1CCCCC1` as the molecule, how does the IC50 (Ebolavirus [1]) read?
A: 1.9 µM

Q: What about the IC50 (Marburgvirus) of the same molecule?
A: 13 µM

Q: For `CN1CCN(CCC(=O)O[C@H]2C(C)(C)[C@H]3CC[C@]2(C)C3)CC1`, which selectivity ratio [2] is on record?
A: 45

Q: What about the selectivity ratio [3] of the same molecule?
A: 16

Q: What about the IC50 (Ebolavirus [1]) of the same molecule?
A: 10.1 µM

Q: What about the IC50 (Marburgvirus) of the same molecule?
A: 29 µM

Q: For `C[C@@H]1[C@H]2C[C@@H](C[C@H]1OC(=O)CCN1CCN(c3ccccc3)CC1)C2(C)C`, which selectivity ratio [2] is on record?
A: 2

Q: What about the selectivity ratio [3] of the same molecule?
A: 4

Q: And the IC50 (Ebolavirus [1])?
A: 54 µM

Q: What about the IC50 (Marburgvirus) of the same molecule?
A: 27 µM

Q: Which selectivity ratio [2] does the source give for `C[C@@H]1[C@H]2C[C@@H](C[C@H]1OC(=O)CCCN1CCN(c3ccccc3)CC1)C2(C)C` here?
A: 8

Q: And the selectivity ratio [3]?
A: 3

Q: What about the IC50 (Ebolavirus [1]) of the same molecule?
A: 7.8 µM

Q: What about the IC50 (Marburgvirus) of the same molecule?
A: 18 µM

Q: With `C[C@@H]1[C@H]2C[C@@H](C[C@H]1OC(=O)CCN1CCN(C)CC1)C2(C)C` as the molecule, how does the IC50 (Ebolavirus [1]) read?
A: 4.9 µM

Q: And the IC50 (Marburgvirus)?
A: 13.9 µM

Q: What does the source list for `CCN1CCN(CCCC(=O)O[C@H]2C(C)(C)[C@H]3CC[C@]2(C)C3)CC1`?
A: IC50 (Ebolavirus [1]): 2.4 µM; IC50 (Marburgvirus): 11.3 µM

Q: For `CCN1CCN(S(=O)(=O)C[C@]23CC[C@H](CC2=O)C3(C)C)CC1`, which IC50 (Ebolavirus [4]) is on record?
A: 91 µM

Q: What does the source list for `C[C@@H]1[C@H]2C[C@@H](C[C@H]1OC(=O)CN1CCN(C)CC1)C2(C)C`?
A: IC50 (Ebolavirus [1]): 4.8 µM; IC50 (Marburgvirus): 47.6 µM

Q: What does the source list for `C[C@@H]1[C@H]2C[C@@H](C[C@H]1OC(=O)CN1CCN(c3ccccc3)CC1)C2(C)C`?
A: selectivity ratio [2]: 6; selectivity ratio [3]: 2; IC50 (Ebolavirus [1]): 9 µM; IC50 (Marburgvirus): 25 µM

Q: With `CC1CCN(CC(=O)O[C@H]2C(C)(C)[C@H]3CC[C@]2(C)C3)CC1` as the molecule, how does the IC50 (Ebolavirus [1]) read?
A: 20.5 µM

Q: And the IC50 (Marburgvirus)?
A: 20.4 µM

Q: With `CC1(C)[C@H]2CC[C@](C)(C2)[C@H]1OC(=O)CCCN1CCN(c2ccccc2)CC1` as the molecule, how does the selectivity ratio [2] read?
A: 22

Q: And the selectivity ratio [3]?
A: 10

Q: And the IC50 (Ebolavirus [1])?
A: 0.54 µM

Q: What about the IC50 (Marburgvirus) of the same molecule?
A: 6 µM

Q: Which selectivity ratio [2] does the source give for `CC1(C)[C@H]2CC[C@](C)(C2)[C@H]1OC(=O)CCN1CCN(c2ccccc2)CC1` here?
A: 2

Q: What about the selectivity ratio [3] of the same molecule?
A: 3

Q: What about the IC50 (Ebolavirus [1]) of the same molecule?
A: 10 µM

Q: What about the IC50 (Marburgvirus) of the same molecule?
A: 7.3 µM

Q: For `CCN1CCN(CC(=O)O[C@H]2C(C)(C)[C@H]3CC[C@]2(C)C3)CC1`, which IC50 (Ebolavirus [1]) is on record?
A: 9.1 µM

Q: What about the IC50 (Marburgvirus) of the same molecule?
A: 30.1 µM

Q: With `CC1(C)[C@H]2CC[C@](C)(C2)[C@H]1OC(=O)CN1CCCCC1` as the molecule, how does the selectivity ratio [2] read?
A: 13

Q: And the selectivity ratio [3]?
A: 1

Q: What about the IC50 (Ebolavirus [1]) of the same molecule?
A: 17.1 µM

Q: What about the IC50 (Marburgvirus) of the same molecule?
A: 164 µM

Q: Which IC50 (Ebolavirus [4]) does the source give for `CC1(C)[C@@H]2CC[C@@]1(CS(=O)(=O)N1CCCCC1)C(=O)C2` here?
A: 60 µM

Q: Which selectivity ratio [2] does the source give for `C[C@@H]1[C@H]2C[C@@H](C[C@H]1OC(=O)CCN1CCCCC1)C2(C)C` here?
A: 23

Q: What about the selectivity ratio [3] of the same molecule?
A: 13

Q: What about the IC50 (Ebolavirus [1]) of the same molecule?
A: 14.3 µM

Q: And the IC50 (Marburgvirus)?
A: 24 µM

Q: With `CC1CCN(CCC(=O)O[C@H]2C(C)(C)[C@H]3CC[C@]2(C)C3)CC1` as the molecule, how does the selectivity ratio [2] read?
A: 48

Q: And the selectivity ratio [3]?
A: 8

Q: And the IC50 (Ebolavirus [1])?
A: 3.9 µM

Q: What about the IC50 (Marburgvirus) of the same molecule?
A: 22 µM

Q: For `CC1(C)[C@H]2CC[C@](C)(C2)[C@H]1OC(=O)CCCN1CCOCC1`, which selectivity ratio [2] is on record?
A: 40

Q: What about the selectivity ratio [3] of the same molecule?
A: 3

Q: What about the IC50 (Ebolavirus [1]) of the same molecule?
A: 6.5 µM

Q: What about the IC50 (Marburgvirus) of the same molecule?
A: 68 µM

Q: Which results are given for `CC1(C)[C@H]2CC[C@](C)(C2)[C@H]1OC(=O)CCN1CCCCC1`?
A: selectivity ratio [2]: 20; selectivity ratio [3]: 11; IC50 (Ebolavirus [1]): 17 µM; IC50 (Marburgvirus): 31 µM

Q: Which results are given for `CC1(C)[C@H]2CC[C@](C)(C2)[C@H]1OC(=O)CN1CCN(c2ccccc2)CC1`?
A: selectivity ratio [2]: 17; selectivity ratio [3]: 1; IC50 (Ebolavirus [1]): 5.8 µM; IC50 (Marburgvirus): 56 µM

Q: With `C[C@@H]1[C@H]2C[C@@H](C[C@H]1OC(=O)CCCN1CCN(C)CC1)C2(C)C` as the molecule, how does the selectivity ratio [2] read?
A: 58

Q: What about the selectivity ratio [3] of the same molecule?
A: 6

Q: And the IC50 (Ebolavirus [1])?
A: 2.8 µM

Q: What about the IC50 (Marburgvirus) of the same molecule?
A: 24 µM

Q: Which IC50 (Ebolavirus [4]) does the source give for `CC1(C)[C@@H]2CC[C@@]1(CS(=O)(=O)N1CCOCC1)C(=O)C2` here?
A: 0.9 µM

Q: For `C[C@@H]1[C@H]2C[C@@H](C[C@H]1OC(=O)CN1CCOCC1)C2(C)C`, which selectivity ratio [2] is on record?
A: 1

Q: What about the IC50 (Ebolavirus [1]) of the same molecule?
A: 106 µM

Q: Which IC50 (Ebolavirus [4]) does the source give for `CN1CCN(S(=O)(=O)C[C@]23CC[C@H](CC2=O)C3(C)C)CC1` here?
A: 540 µM

Q: For `C[C@@H]1[C@H]2C[C@@H](C[C@H]1OC(=O)CCCN1CCCCC1)C2(C)C`, which selectivity ratio [2] is on record?
A: 30

Q: What about the selectivity ratio [3] of the same molecule?
A: 13

Q: And the IC50 (Ebolavirus [1])?
A: 4 µM

Q: What about the IC50 (Marburgvirus) of the same molecule?
A: 9 µM

Q: With `C[C@@H]1[C@H]2C[C@@H](C[C@H]1OC(=O)CN1CCCCC1)C2(C)C` as the molecule, how does the selectivity ratio [2] read?
A: 7

Q: And the selectivity ratio [3]?
A: 3

Q: What about the IC50 (Ebolavirus [1]) of the same molecule?
A: 42 µM

Q: What about the IC50 (Marburgvirus) of the same molecule?
A: 107 µM

Q: Which results are given for `C[C@@H]1[C@H]2C[C@@H](C[C@H]1OC(=O)CCN1CCOCC1)C2(C)C`?
A: selectivity ratio [2]: 4; selectivity ratio [3]: 1; IC50 (Ebolavirus [1]): 57 µM; IC50 (Marburgvirus): 156 µM

Q: For `C[C@@H]1[C@H]2C[C@@H](C[C@H]1OC(=O)CCCN1CCOCC1)C2(C)C`, which selectivity ratio [2] is on record?
A: 5

Q: What about the selectivity ratio [3] of the same molecule?
A: 2

Q: And the IC50 (Ebolavirus [1])?
A: 21 µM

Q: And the IC50 (Marburgvirus)?
A: 39 µM

Q: With `CC1(C)[C@H]2CC[C@](C)(C2)[C@H]1OC(=O)CCN1CCOCC1` as the molecule, how does the IC50 (Ebolavirus [1]) read?
A: 57.9 µM

Q: What about the IC50 (Marburgvirus) of the same molecule?
A: 64.4 µM

Q: Which IC50 (Ebolavirus [1]) does the source give for `CC1CCN(CCCC(=O)O[C@H]2C(C)(C)[C@H]3CC[C@]2(C)C3)CC1` here?
A: 2.8 µM

Q: What about the IC50 (Marburgvirus) of the same molecule?
A: 26.4 µM

Q: Which IC50 (Ebolavirus [1]) does the source give for `CN(C)CCOc1ccc(/C(=C(/CCCl)c2ccccc2)c2ccccc2)cc1` [TOREMIFENE] here?
A: 0.2 µM

Q: What about the IC50 (Marburgvirus) of the same molecule?
A: 0.7 µM
